Results from US20030219831A1, “Split-hybrid system” (priority 2002, published 2003).

Key:
Type in all cases: cell-based
[1] = system: interactions between RAR and IDII; test: Two-hybrid reporter assay, VP16-RAR and Gal4N-IDII co-expressed with Gal-TK-Luc; details: 1 mM retinoid acid; VP16-RAR + Gal4N-IDII, Gal-TK-Luc; ~120 fold without compound
Experimental: Two fusion proteins, VP16-RAR and Gal4N-IDII, were co-expressed in a cell containing a Gal-TK-Luc reporter gene construct. Unexpectedly, interactions between RAR and IDII led to a ˜120 fold induction of the reporter gene activity. In contrast, in the presence of 1 mM retinoid acid, interactions of IDII with RAR were blocked and induction of the reporter gene activity was reduced to only ˜7 fold.

Gal-TK-Luc = test: Specificity control, Gal-TK-Luc by itself or with co-transfection controls; details: Gal-TK-Luc by itself or with controls Gal4N-Mad, Gal4N-IDII and NLS-HA-Mad-RAR
Description: (§1) Next, two fusion proteins, NLS (nuclear localization signal)-HA (hemagglutinin)-Mad-RAR and Gal4N-IDII, were co-expressed in a cell containing a Gal-TK-Luc reporter gene construct. Unexpectedly, interactions between RAR and IDII led to a ˜7.5 fold repression of the reporter gene activity.

[2] = system: interactions of Gal4N-IDII with SMRT-RAR; test: Split-hybrid system, SMRT-RAR and Gal4N-IDII with Gal-RSV-Luc; details: Gal-RSV-Luc, 8.5-fold repression without compound
Description: Next, two fusion proteins, SMRT-RAR and Gal4N-IDII, were co-expressed in a cell containing a Gal-RSV-Luc reporter gene construct. Unexpectedly, interactions of Gal4N-IDII with SMRT-RAR conferred 8.5-fold repression. This repression was reversed by retinoid acid treatment.

[3] = system: interactions between RAR and IDII; test: Retinoid acid split-hybrid system, NLS-HA-Mad-RAR and Gal4N-IDII with Gal-TK-Luc; set-up: dose or concentration left out as unconfirmed; details: Gal-TK-Luc, ~7.5 fold repression without compound
Description: as §1

RAR and IDI1 = test: Split-hybrid system with RED1 reporter, RAR and IDII; details: in the presence of retinoid acid

SMILES: CC1=C(/C=C/C(C)=C/C=C/C(C)=C/C(=O)O)C(C)(C)CCC1 [retinoid acid]
- induction of the reporter gene activity [1]: ~7 fold
- alteration of reporter gene activity of Gal-TK-Luc (Gal-TK-Luc): did not significantly alter
- reversal of repression of the reporter gene [2]: reversed
- reversal of repression of the reporter gene activity [3]: completely reversed
- red fluorescence from RED1 reporter (RAR and IDI1): detected
